Test results reported in ChEMBL document CHEMBL1201862, “PubChem BioAssay data set” (2004).
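Briefly, cells in 96-well plates were exposed to five compound concentrations for 48 h, and endpoints were estimated by linear interpolation. GI50: concentration for 50% inhibition of growth.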 Activity calls are given as the source filed them. Rule as the data show it: active = GI50 up to about 1.1 µM and inactive = higher.

Legend:
Experiment in all cases: growth of human tumour cells (NCI), 48 h
[1] = tested on: UACC-257
[2] = tested on: T47D
[3] = tested on: OVCAR-4
[4] = tested on: PC-3
[5] = tested on: HOP-62
[6] = tested on: Hs-578T
[7] = tested on: A498
[8] = tested on: SF-268
[9] = tested on: A549
[10] = tested on: Malme-3M
[11] = tested on: HCT-15
[12] = tested on: SNB-19
[13] = tested on: COLO 205
[14] = tested on: SK-MEL-2
[15] = tested on: HCC 2998
[16] = tested on: U-251
[17] = tested on: RPMI-8226
[18] = tested on: EKVX
[19] = tested on: IGROV-1

SMILES	GI50 [1]	GI50 [2]	GI50 [3]	GI50 [4]	GI50 [5]	GI50 [6]	GI50 [7]	GI50 [8]	GI50 [9]	GI50 [10]	GI50 [11] [µM]	GI50 [12]	GI50 [13]	GI50 [14]	GI50 [15]	GI50 [16]	GI50 [17]	GI50 [18]	GI50 [19]
Nc1nc(Cl)cc(Nc2cc(Cl)cc(Cl)c2)n1	18.5 µM (inactive)	37 µM (inactive)	21.7 µM (inactive)	19.7 µM (inactive)	29.2 µM (inactive)	16.8 µM (inactive)	25.9 µM (inactive)	20.8 µM (inactive)	24.8 µM (inactive)	22.3 µM (inactive)	20.7	23.4 µM (inactive)	22.4 µM (inactive)	18.7 µM (inactive)	18.7 µM (inactive)	21.2 µM (inactive)	33 µM (inactive)	21.3 µM (inactive)	18.7 µM (inactive)
CCCCC1C(=O)N(c2ccc(S(=O)(=O)Nc3ccccn3)cc2)N(c2ccc(O)c(C(=O)O)c2)C1=O (stereo not drawn)	> 100 µM (inactive)	> 100 µM (inactive)	> 100 µM (inactive)	> 100 µM (inactive)		> 100 µM (inactive)	> 100 µM (inactive)	> 100 µM (inactive)	> 100 µM (inactive)	> 100 µM (inactive)	> 100	> 100 µM (inactive)	> 100 µM (inactive)	> 100 µM (inactive)	> 100 µM (inactive)	> 100 µM (inactive)	> 100 µM (inactive)	> 100 µM (inactive)	> 100 µM (inactive)
COc1cc(C2C3=C(COC3=O)OC(C)(C)Oc3cc4c(cc32)OCO4)cc(OC)c1O (stereo not drawn)	5.14 µM (inactive)	0.498 µM (active)	> 38.8 µM (inactive)	0.444 µM (active)	0.791 µM (active)	1.56 µM (inactive)	1.04 µM (active)	0.916 µM (active)	0.944 µM (active)	0.746 µM (active)	0.873	1.33 µM (inactive)	2.44 µM (inactive)	14.6 µM (inactive)	2.27 µM (inactive)	0.966 µM (active)	1.62 µM (inactive)	4.12 µM (inactive)	0.989 µM (active)
CSc1ccc(NC(=O)C2CCCCC2C(=O)O)cc1 (stereo not drawn)	> 100 µM (inactive)	> 100 µM (inactive)	> 100 µM (inactive)	> 100 µM (inactive)	> 100 µM (inactive)	> 100 µM (inactive)	> 100 µM (inactive)	> 100 µM (inactive)	> 100 µM (inactive)	> 100 µM (inactive)	> 100	> 100 µM (inactive)	> 100 µM (inactive)	> 100 µM (inactive)	> 100 µM (inactive)	> 100 µM (inactive)	> 100 µM (inactive)	> 100 µM (inactive)	> 100 µM (inactive)
CCOC(=O)c1csc(-c2cn(C)c3c2C(=O)C(OC)=CC3=O)n1	21.6 µM (inactive)	> 95.1 µM (inactive)	42.8 µM (inactive)	21.4 µM (inactive)	23.2 µM (inactive)	21.2 µM (inactive)	24.3 µM (inactive)	> 62.5 µM (inactive)	17.8 µM (inactive)		9.75	14.2 µM (inactive)	26.9 µM (inactive)	21.7 µM (inactive)	23.8 µM (inactive)	15.4 µM (inactive)	9.53 µM (inactive)	> 86.3 µM (inactive)	> 46.1 µM (inactive)
CC(C)=CCC/C(C)=C/Cc1cc(/C=C/c2cc(O)c(CC=C(C)C)c(O)c2)cc(O)c1O [MAPPAIN]	1.67 µM (inactive)	1.84 µM (inactive)	1.94 µM (inactive)	3.36 µM (inactive)	11.4 µM (inactive)	10.8 µM (inactive)	6.56 µM (inactive)	2.64 µM (inactive)	4.72 µM (inactive)	6.38 µM (inactive)	3.05	4.5 µM (inactive)	17.3 µM (inactive)	2.77 µM (inactive)	2.13 µM (inactive)	2.18 µM (inactive)	0.506 µM (active)	2.96 µM (inactive)	1.76 µM (inactive)
CC(Cl)CN1c2ccccc2Sc2ccc(Cl)cc21 (stereo not drawn)	> 10 µM (inactive)	> 10 µM (inactive)	> 10 µM (inactive)	> 10 µM (inactive)	> 10 µM (inactive)	> 10 µM (inactive)	> 10 µM (inactive)	> 10 µM (inactive)	> 10 µM (inactive)	> 10 µM (inactive)	> 10	> 10 µM (inactive)	> 10 µM (inactive)	> 10 µM (inactive)	> 10 µM (inactive)	> 10 µM (inactive)	> 10 µM (inactive)	> 10 µM (inactive)	> 10 µM (inactive)
O=c1c2ncn(CCCl)c2n(-c2ccccc2)c(=S)n1-c1ccccc1	> 100 µM (inactive)	> 100 µM (inactive)	> 100 µM (inactive)	> 100 µM (inactive)	> 100 µM (inactive)	69.5 µM (inactive)	> 100 µM (inactive)	> 100 µM (inactive)	> 100 µM (inactive)	> 100 µM (inactive)	> 100	> 100 µM (inactive)	> 100 µM (inactive)	> 100 µM (inactive)	> 100 µM (inactive)	> 100 µM (inactive)	> 100 µM (inactive)	> 100 µM (inactive)	> 100 µM (inactive)
CN(C)CC1CCC/C(=C\c2ccc(N(C)C)cc2)C1=O (stereo not drawn)	13.5 µM (inactive)	2.25 µM (inactive)	2.15 µM (inactive)	18.2 µM (inactive)	18.8 µM (inactive)	3.58 µM (inactive)	17.1 µM (inactive)	1.78 µM (inactive)	17.9 µM (inactive)	12.1 µM (inactive)	4.86	17.7 µM (inactive)	2.58 µM (inactive)	10.2 µM (inactive)	15.9 µM (inactive)	17 µM (inactive)	> 100 µM (inactive)	16.7 µM (inactive)	3.73 µM (inactive)
O=[N+]([O-])C(=C/C1CCCCC1)/C(=C\C1CCCCC1)[N+](=O)[O-]	8.63 µM (inactive)	9.73 µM (inactive)	18.9 µM (inactive)	6.32 µM (inactive)	3.71 µM (inactive)	2.84 µM (inactive)	15.3 µM (inactive)	3.27 µM (inactive)	18.6 µM (inactive)	2.2 µM (inactive)	1.85	18.4 µM (inactive)	3.21 µM (inactive)	16.3 µM (inactive)	20.2 µM (inactive)	3.73 µM (inactive)	0.316 µM (active)	9.4 µM (inactive)	5.27 µM (inactive)
Cc1nc(O)nc(NNCc2ccc(Cl)cc2)c1C(=O)Nc1ccc(Cl)cc1	> 100 µM (inactive)	> 100 µM (inactive)	> 100 µM (inactive)	> 100 µM (inactive)	> 100 µM (inactive)	> 100 µM (inactive)	> 100 µM (inactive)		> 100 µM (inactive)	> 100 µM (inactive)	50.1	> 100 µM (inactive)	> 100 µM (inactive)	> 100 µM (inactive)	> 100 µM (inactive)	> 100 µM (inactive)	> 100 µM (inactive)		> 100 µM (inactive)
COC(=O)C1=C(O)C(C(=O)OC)[C@]2(O)[C@H](C(=O)OC)[C@H]1C[C@@H](c1ccc(Cl)cc1)[C@H]2C(=O)OC (stereo partly drawn)	7.6 µM (inactive)	6.58 µM (inactive)	11.1 µM (inactive)	4.65 µM (inactive)	7.67 µM (inactive)	3.89 µM (inactive)	11.7 µM (inactive)	6.79 µM (inactive)	5.64 µM (inactive)	6.56 µM (inactive)	4.59	5.5 µM (inactive)	10 µM (inactive)	1.79 µM (inactive)	6.79 µM (inactive)	6.05 µM (inactive)	4.06 µM (inactive)	10.9 µM (inactive)	14.5 µM (inactive)
Fc1sc2c(c1F)C1CCC2C1 (stereo not drawn)	40.9 µM (inactive)	88.3 µM (inactive)	> 100 µM (inactive)	75.7 µM (inactive)	> 100 µM (inactive)	19.7 µM (inactive)	> 100 µM (inactive)	> 100 µM (inactive)	> 100 µM (inactive)	> 100 µM (inactive)	85.9	> 100 µM (inactive)	43.2 µM (inactive)	> 100 µM (inactive)	> 100 µM (inactive)	97.7 µM (inactive)	31.9 µM (inactive)	> 100 µM (inactive)	51.2 µM (inactive)
COc1cc2c[n+]3c4c(c2c(OC)c1OC)CCCC4CC3 (stereo not drawn)	35.6 µM (inactive)	27.9 µM (inactive)	> 100 µM (inactive)	> 100 µM (inactive)	> 100 µM (inactive)	9.2 µM (inactive)	> 100 µM (inactive)		> 100 µM (inactive)	15.5 µM (inactive)	> 100	36.6 µM (inactive)	> 100 µM (inactive)	> 100 µM (inactive)	98.4 µM (inactive)	17 µM (inactive)	> 100 µM (inactive)	> 100 µM (inactive)	> 100 µM (inactive)
Cn1c(-c2ccccc2)cc(-c2ccc3c(c2)OCO3)c1-c1ccsc1	> 100 µM (inactive)	> 100 µM (inactive)	> 100 µM (inactive)	> 100 µM (inactive)	> 100 µM (inactive)	> 100 µM (inactive)	> 100 µM (inactive)	> 100 µM (inactive)	> 100 µM (inactive)		> 100	> 100 µM (inactive)	> 100 µM (inactive)	> 100 µM (inactive)	> 100 µM (inactive)	> 100 µM (inactive)	> 100 µM (inactive)	> 100 µM (inactive)	
